# From US20210330611A1, “THERAPY FOR NEUROLOGICAL DISEASES/DISORDERS” (priority 2020, published 2021)
# Several values for one entry are separate records, joined by “and”; a condition that tells them apart may be missing. Identical values can stand only once. Counter-ions that a name gives are not always drawn. Like-named read-outs stand apart in the source and are kept apart here.
# What was measured:
# primary rat microglia [1] = tested on: primary rat microglia
# [2] = tested on: fibrin- and LPS-induced microglia activation; experiment: cells; format: cell-based, rat
# primary rat microglia [3] = experiment: Cell toxicity (dead cells, size <150 μm2) in coated fibrin (cFib) assay; conditions: primary microglia HTS;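 further: share of dead cells sized under 150 µm2 at 10 µM in fibrin-stimulated microglia HTS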
# [4] = tested on: LPS-induced microglia activation; experiment: Image-based assay of LPS-induced microglia activation (HTS and dose response); format: cell-based, rat
# [5] = tested on: fibrin-induced microglia activation; experiment: Image-based assay of fibrin-induced microglia activation (HTS and dose response); format: cell-based, rat; conditions: for inhibition at 10 µM: Rattus norvegicus, Microglia, read-out: Fibrin % inhibition
# [6] = quadrant by fibrin and LPS inhibition, HTS at 10 μM
# [7] = quadrant by fibrin and LPS inhibition in HTS of 1907 compounds
# [8] = Rattus norvegicus, Microglia, 48 h, read-out: LPS % inhibition
# [9] = Rattus norvegicus, Microglia, primary microglia HTS, LPS stimulation, compounds at 10 μM; read-out: LPS % inhibition
# [10] = primary microglia HTS, fibrin stimulation, compounds at 10 μM
# [11] = classification by fibrin and LPS inhibition, HTS at 10 μM
# [12] = Rattus norvegicus, Microglia, read-out: LPS % inhibition
smiles,measurement,setting,value
C[C@H]1[C@H](NC(=O)/C(=N\OC(C)(C)C(=O)O)c2csc(N)n2)C(=O)N1S(=O)(=O)O [Aztreonam],LPS % cell toxicity,primary rat microglia [1]; rat,0%
same,Quadrant (FIG. 5b),[2]; [6],Q4
same,Fibrin % cell toxicity,"primary rat microglia [3]; fibrin assay, dead cells (size <150 μm2)",1% and 0%
CSCC[C@H](NC(=O)[C@H](Cc1c[nH]c2ccccc12)NC(=O)CCNC(=O)OC(C)(C)C)C(=O)N[C@@H](CC(=O)O)C(=O)N[C@@H](Cc1ccccc1)C(N)=O [Pentagastrin],LPS % cell toxicity,primary rat microglia [1],1%
same,Fibrin % cell toxicity,"primary rat microglia [3]; fibrin stimulation, cell size <150 μm2 as marker of toxicity",1%
"COc1ccc(Cl)cc1C(=O)NCCc1ccc(S(=O)(=O)NC(=O)NC2CCCCC2)cc1 [Glibenclamide, Glyburide]",LPS % cell toxicity,primary rat microglia [1],0%
same,LPS % inhibition,"[4]; primary microglia HTS, LPS stimulation, activation = cell size >800 μm2",8%
same,Quadrant (FIG. 5b),[2]; [7],Q4
same,Fibrin % inhibition,"[5]; primary microglia HTS, fibrin stimulation, activation = cell size >800 μm2",−23%
C[C@@H](c1ncncc1F)[C@](O)(Cn1cncn1)c1ccc(F)cc1F [Voriconazole],LPS % cell toxicity,primary rat microglia [1]; rat,0%
same,inhibition at 10 µM,"[4]; Rattus norvegicus, Microglia, primary microglia HTS, 10 μM, LPS-stimulated, cell size >800 μm^2 as marker of activation; read-out: LPS % inhibition",5%
same,Quadrant (FIG. 5b),"[2]; HTS of 1907 compounds, quadrant by fibrin and LPS inhibition",Q4
same,inhibition at 10 µM,"[5]; primary microglia HTS, 10 μM, fibrin-stimulated, cell size >800 μm^2 as marker of activation",-42%
O=NN(CCCl)C(=O)NCCCl [Carmustine],LPS % cell toxicity,primary rat microglia [1]; rat,0%
same,inhibition at 10 µM,"[4]; Rattus norvegicus, Microglia, primary HTS, 10 μM, LPS-stimulated primary microglia; read-out: LPS % inhibition",9%
same,Quadrant (FIG. 5b),"[2]; primary HTS, 10 μM",Q4
same,inhibition at 10 µM,"[5]; primary HTS, 10 μM, fibrin-stimulated primary microglia",1%
CCCN(CCC)CCc1cccc2c1CC(=O)N2 [Ropinirole],LPS % cell toxicity,primary rat microglia [1]; rat,0%
same,inhibition at 10 µM,[4]; [8],15%
same,Quadrant (FIG. 5b),[2],Q4
same,inhibition at 10 µM,[5],-26%
CCN1CCN(C(=O)N[C@@H](C(=O)N[C@@H]2C(=O)N3[C@@H]2SC(C)(C)[C@@H]3C(=O)O)c2ccccc2)C(=O)C1=O [Piperacillin],LPS % cell toxicity,primary rat microglia [1]; rat,2%
same,inhibition at 10 µM,[4]; [9],80%
same,Quadrant (FIG. 5b),[2]; [6],Q2
same,inhibition at 10 µM,[5]; [10],103%
CCCCCCCCCCCCCCCC(=O)NCCO [Palmidrol],LPS % cell toxicity,primary rat microglia [1]; rat,0%
same,inhibition at 10 µM,[4]; [8],7%
same,Quadrant (FIG. 5b),[2],Q4
same,inhibition at 10 µM,[5],-40%
CC(NC(C)(C)C)C(=O)c1cccc(Cl)c1.Cl (stereo not drawn),LPS % cell toxicity,primary rat microglia [1],2%
same,LPS % inhibition,[4]; 10 µM,27%
same,Quadrant (FIG. 5b),[2],Q4
same,Fibrin % inhibition,[5]; 10 µM,−15%
CC1(C)[C@@H](O)CC[C@]2(C)[C@H]3C(=O)C=C4[C@@H]5C[C@@](C)(C(=O)O)CC[C@]5(C)CC[C@@]4(C)[C@]3(C)CC[C@@H]12 [Enoxolone],LPS % cell toxicity,primary rat microglia [1]; rat,0%
same,inhibition at 10 µM,[4]; [9],7%
same,Quadrant (FIG. 5b),[2]; [11],Q4
same,inhibition at 10 µM,[5]; [10],-40%
CC(C)NC[C@@H](O)COc1cccc2ccccc12 [Dexpropranolol Hydrochloride],LPS % cell toxicity,primary rat microglia [1]; rat,0%
same,inhibition at 10 µM,[4]; [12],19%
same,Quadrant (FIG. 5b),[2],Q4
same,inhibition at 10 µM,[5],-21%
O=C(CCCl)NCc1ccccc1 [Beclamide],LPS % cell toxicity,primary rat microglia [1]; rat,0%
same,inhibition at 10 µM,[4]; [9],2%
same,Quadrant (FIG. 5b),[2]; [6],Q4
same,inhibition at 10 µM,[5]; [10],19%
"CSc1ccc2c(c1)N(CCC1CCCCN1C)c1ccccc1S2 (stereo not drawn) [Thioridazine hydrochloride, reference compound]",LPS % cell toxicity,primary rat microglia [1]; rat,73%
same,inhibition at 10 µM,[4]; [8],118%
same,Activity,[2],fib/LPS
same,Quadrant (FIG. 5b),[2],Q2
same,inhibition at 10 µM,[5],116%
Cc1c(C(N)=O)cc([N+](=O)[O-])cc1[N+](=O)[O-] [Dinitolmide],LPS % cell toxicity,primary rat microglia [1]; rat,0%
same,inhibition at 10 µM,[4]; [12],10%
same,Quadrant (FIG. 5b),[2],Q4
same,inhibition at 10 µM,[5],-45%
CC(=O)O[C@H]1C[C@@H]2CC[C@@H]3[C@H](CC[C@@]4(C)[C@H]3C[C@H]([N+]3(C)CCCCC3)[C@@H]4OC(C)=O)[C@@]2(C)C[C@@H]1[N+]1(C)CCCCC1 [Pancuronium],LPS % cell toxicity,primary rat microglia [1]; rat,0%
same,LPS % inhibition,"[4]; primary microglia HTS, LPS stimulation; increased cell size (>800 μm^2) as marker of activation",1%
same,Quadrant (FIG. 5b),[2]; [7],Q4
same,Fibrin % inhibition,"[5]; primary microglia HTS, fibrin stimulation, increased cell size (>800 μm^2) as marker of activation",−4%
C1CCN2C[C@@H]3C[C@@H](CN4CCCC[C@@H]34)[C@H]2C1 [Sparteine Sulfate],LPS % cell toxicity,primary rat microglia [1]; rat,0%
same,inhibition at 10 µM,"[4]; Rattus norvegicus, Microglia, 48 h; read-out: LPS % inhibition",20%
same,Quadrant (FIG. 5b),[2]; classification by fibrin and LPS inhibition in HTS,Q4
same,inhibition at 10 µM,"[5]; primary microglia HTS, fibrin stimulation, cell size >800 μm2 as marker of activation",7%
C[C@H](N[C@@H](CCc1ccccc1)C(=O)O)C(=O)N1CCC[C@H]1C(=O)O [Enalaprilat],LPS % cell toxicity,primary rat microglia [1],0%
same,LPS % inhibition,"[4]; primary microglia HTS, LPS stimulation, compounds at 10 μM",18%
same,Quadrant (FIG. 5b),[2]; [11],Q4
same,Fibrin % inhibition,[5]; [10],25%
